Assay results from patent US8791158B2, “Methods of treating meibomian gland dysfunction” (GTX, Inc., priority 2010, dated 2014).

Assay: Plasma concentration of Compound 2 after topical or subcutaneous dosing, Example 3
Type: in vivo, rabbit
Settings: one hour after last dose, LCMS
Description: Drug dosing was done once daily for 14 days. Blood was collected at 60 minutes post administration of the last dose of drug and plasma separated for HPLC analysis of parent drug concentrations.
To normalize for the tear content, the lipid composition was expressed as a ratio of the lipid that was most affected by castration (palmitate) to one which remained relatively constant (stearate). Blood was also collected on day 15 (24 hours after last drug administration) of the study, plasma separated and analyzed for Compound 2.
Systemic exposures after topical and subcutaneous administration were determined in peripheral blood samples collected one hour after drug administration on the last day of the study. Plasma concentrations of Compound 2 were measured using LCMS. Mean plasma concentrations of Compound 2 following topical administration were 1177±398.72 nM, while mean levels were 1210±311.93 nM in animals that received subcutaneous (SQ) doses.

C[C@](O)(COc1ccc(C#N)c(F)c1)C(=O)Nc1ccc(C#N)c(C(F)(F)F)c1 [Compound 2, (S)—N-(4-cyano-3-(trifluoromethyl)phenyl)-3-(4-cyano-3-fluorophenoxy)-2-hydroxy-2-methylpropanamide]
concentration at 1 h (rabbit, plasma, subcutaneous 2.5 mg/kg): 1210 ± 312 nM | concentration at 1 h (rabbit, plasma, topical 2.5 mg/kg): 1180 ± 399 nM | concentration at 1 h (subcutaneous 2.5 mg/kg): 1210 nM | concentration at 1 h (topical 2.5 mg/kg): 1177 nM
